ChEMBL document CHEMBL1201862, “PubChem BioAssay data set” (2004)
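Compound exposure: 48 hours, 5 concentrations, 96-well plates. The concentration for 50% growth inhibition is given as GI50.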 Calls of active or inactive are those of the source. Cut-off read from the data, not from the text of the source: active = GI50 up to about 1.1 µM and inactive = higher.

Legend:
Experiment in all cases: DTP human tumour cell line panel, 48 h
OVCAR-8 = test system: OVCAR-8
K562 = test system: K562
DMS-273 = test system: DMS-273
RXF 393 = test system: RXF 393
HOP-18 = test system: HOP-18
COLO 205 = test system: COLO 205
SR = test system: SR
NCI-H460 = test system: NCI-H460
LOX IMVI = test system: LOX IMVI
U-251 = test system: U-251
SK-MEL-2 = test system: SK-MEL-2
OVCAR-5 = test system: OVCAR-5
M19-MEL = test system: M19-MEL
UO-31 = test system: UO-31
SF-268 = test system: SF-268
KM-20L2 = test system: KM-20L2
SNB-75 = test system: SNB-75
OVCAR-4 = test system: OVCAR-4
NCI/ADR-RES = test system: NCI/ADR-RES
SF-295 = test system: SF-295

SMILES | GI50 (OVCAR-8) | GI50 (K562) | GI50 (DMS-273) | GI50 (RXF 393) | GI50 (HOP-18) | GI50 (COLO 205) | GI50 (SR) | GI50 (NCI-H460) | GI50 (LOX IMVI) | GI50 (U-251) | GI50 (SK-MEL-2) | GI50 (OVCAR-5) | GI50 (M19-MEL) | GI50 (UO-31) | GI50 (SF-268) | GI50 (KM-20L2) | GI50 (SNB-75) | GI50 (OVCAR-4) | GI50 (NCI/ADR-RES) | GI50 (SF-295)
CCn1cnnc1-c1nsc2ccccc12 | > 100 µM (inactive) | 68.1 µM (inactive) | > 100 µM (inactive) | 23.2 µM (inactive) | > 100 µM (inactive) | > 100 µM (inactive) | > 100 µM (inactive) | > 100 µM (inactive) | > 100 µM (inactive) | > 100 µM (inactive) | > 100 µM (inactive) | 7.52 µM (inactive) | > 100 µM (inactive) | > 100 µM (inactive) | > 100 µM (inactive) | > 100 µM (inactive) | 0.369 µM (active) | > 100 µM (inactive) |  | 
CC1(C)OCC=CCO1 | > 100 µM (inactive) | 67.8 µM (inactive) |  | > 100 µM (inactive) |  | > 100 µM (inactive) |  | > 100 µM (inactive) | 50.9 µM (inactive) | > 100 µM (inactive) | > 100 µM (inactive) | > 100 µM (inactive) |  | > 100 µM (inactive) | > 100 µM (inactive) |  | > 100 µM (inactive) | > 100 µM (inactive) | > 100 µM (inactive) | > 100 µM (inactive)
N/C(=N/O)N/N=C\c1cc(Cl)cc(Cl)c1O | 2.38 µM (inactive) | 3.06 µM (inactive) | 0.347 µM (active) | 5.05 µM (inactive) | 10.7 µM (inactive) | 5.7 µM (inactive) |  | 0.0705 µM (active) | 0.918 µM (active) | 2.87 µM (inactive) | 9.62 µM (inactive) | 7.36 µM (inactive) | 4.19 µM (inactive) | 4.25 µM (inactive) | 1.4 µM (inactive) | 5.57 µM (inactive) | 1.03 µM (active) | 8.04 µM (inactive) | 1.32 µM (inactive) | 0.791 µM (active)
Nc1c(-c2ccccc2[N+](=O)[O-])nc2ccccn12 | > 100 µM (inactive) | > 100 µM (inactive) | > 100 µM (inactive) | > 100 µM (inactive) |  | > 100 µM (inactive) | > 100 µM (inactive) | > 100 µM (inactive) | > 100 µM (inactive) | > 100 µM (inactive) | > 100 µM (inactive) | > 100 µM (inactive) | > 100 µM (inactive) | > 100 µM (inactive) | > 100 µM (inactive) | > 100 µM (inactive) |  |  |  | > 100 µM (inactive)
COc1ccc(C2C(Cl)C(=O)N2NC(=O)c2ccc(NC(C)=O)cc2)cc1OC (centres undefined) | > 100 µM (inactive) | > 100 µM (inactive) |  |  | > 100 µM (inactive) | > 100 µM (inactive) | > 100 µM (inactive) | > 100 µM (inactive) |  | > 100 µM (inactive) | > 100 µM (inactive) | > 100 µM (inactive) | > 100 µM (inactive) | > 100 µM (inactive) | > 100 µM (inactive) |  | > 100 µM (inactive) |  |  | > 100 µM (inactive)
O=[N+]([O-])c1cc(C(F)(F)F)cc2c1SC1=Nc3ccccc3CN12 | > 100 µM (inactive) | > 100 µM (inactive) | > 100 µM (inactive) | > 100 µM (inactive) | > 100 µM (inactive) | > 100 µM (inactive) |  | > 100 µM (inactive) | > 100 µM (inactive) | > 100 µM (inactive) | > 100 µM (inactive) | > 100 µM (inactive) | > 100 µM (inactive) | > 100 µM (inactive) | > 100 µM (inactive) | > 100 µM (inactive) | > 100 µM (inactive) | > 100 µM (inactive) | > 100 µM (inactive) | > 100 µM (inactive)
CCOC(=O)c1cc(Cl)ccc1OC(N)=O | > 100 µM (inactive) | > 100 µM (inactive) | > 100 µM (inactive) | > 100 µM (inactive) | > 96.4 µM (inactive) | > 100 µM (inactive) |  | > 100 µM (inactive) | > 100 µM (inactive) | > 100 µM (inactive) | > 100 µM (inactive) | > 100 µM (inactive) | > 100 µM (inactive) | > 100 µM (inactive) | > 100 µM (inactive) | > 100 µM (inactive) | > 100 µM (inactive) | > 100 µM (inactive) | > 100 µM (inactive) | > 100 µM (inactive)
CC[C@@H]1ON(C)[C@H]2CN(C)C(=O)[C@@H]12 | > 100 µM (inactive) | > 100 µM (inactive) |  |  |  | > 100 µM (inactive) | > 100 µM (inactive) | > 100 µM (inactive) | > 100 µM (inactive) | > 100 µM (inactive) | > 100 µM (inactive) | > 100 µM (inactive) |  | > 100 µM (inactive) |  |  |  | > 100 µM (inactive) | > 100 µM (inactive) | > 100 µM (inactive)
COCOc1ccc(OC)cc1 | > 100 µM (inactive) | > 100 µM (inactive) | > 100 µM (inactive) | > 100 µM (inactive) | > 100 µM (inactive) | > 100 µM (inactive) |  | > 100 µM (inactive) | > 100 µM (inactive) | > 100 µM (inactive) | > 100 µM (inactive) | > 100 µM (inactive) | > 100 µM (inactive) | > 100 µM (inactive) | > 100 µM (inactive) | > 100 µM (inactive) | > 100 µM (inactive) | > 100 µM (inactive) | > 100 µM (inactive) | > 100 µM (inactive)
N#Cc1ccc([N+](=O)[O-])cc1NC(N)=S | > 100 µM (inactive) |  | > 100 µM (inactive) |  | > 100 µM (inactive) | > 100 µM (inactive) | > 100 µM (inactive) |  |  | > 100 µM (inactive) | > 100 µM (inactive) | > 100 µM (inactive) | > 100 µM (inactive) | > 100 µM (inactive) | > 100 µM (inactive) | > 100 µM (inactive) | > 100 µM (inactive) |  |  | > 100 µM (inactive)
CC1CCN(c2cc(-c3cc4ccccc4o3)oc(=O)c2C#N)CC1 | > 100 µM (inactive) | > 100 µM (inactive) | > 100 µM (inactive) | 45.7 µM (inactive) | > 100 µM (inactive) | > 100 µM (inactive) | > 100 µM (inactive) | > 100 µM (inactive) | > 100 µM (inactive) | > 100 µM (inactive) | > 100 µM (inactive) | > 100 µM (inactive) |  | > 100 µM (inactive) | > 100 µM (inactive) | > 100 µM (inactive) | > 100 µM (inactive) | 18.8 µM (inactive) |  | 68.9 µM (inactive)
